Test results: US20210087172A1, “FACTOR XIIa INHIBITORS” (UNIVESITY OF LEEDS, priority 2018, published 2021)

Legend:
Format in all cases: biochemical
Thrombin (human) = target: T1, Thrombin (human) (Homo sapiens, UniProt P00734); assay: Determination of selectivity: thrombin chromogenic assay (GPR substrate); details: fold selectivity for FXIIa over thrombin; thrombin 5 nM, GPR 250 μM
T1 construct: FXa (5 nM) and thrombin (5 nM)
Procedure: (§1) The activities of the compounds of the invention have been determined in vitro using the following assays protocols for the screening of activity of FXIa and other proteases. Each of these assays were performed in a purified system employing the use of chromogenic assays in microplate plate wells. Chromogenic peptide substrates mimicking natural protein substrates are attached via an amide bond to a chromogenic group. Paranitroaniline (pNA) is released from the peptide following catalyses by the proteolytic enzyme; the absorbance increases and can be monitored at 405 nm.
(§2) All compounds were dissolved in 100% (v/v) DMSO to a stock concentration of 10 mM, the highest concentration of compound used in each assay is 500 μM. The final concentrations of DMSO were 5% (v/v) in 50 mM Tris 137 mM NaCl pH 7.4. Where no test compound was added a final concentration of 5% DMSO was employed.
(§3) To determine selectivity of test compounds, these test compounds were assayed for inhibitory activity against other serine proteases including FXa and thrombin. Essentially compounds at increasing concentrations were incubated with each enzyme: FXa (5 nM) and thrombin (5 nM), for 10 mins at 37° C. followed the appropriate chromogenic substrate, S2765 (350 μM), and GPR (250 μM) respectively in 50 mM Tris, 137 mM NaCl, pH 7.4. Chromogenic substrates S2765 was from Chromogenix, and GPR from Bachem. Kinetic readings at 405 nm were monitored every 12 secs for a total duration of 3 hours at 37° C. Gradients of initial rates were determined and employed to calculate IC50 values. Values of IC50 were converted to Ki values based on the formula:
(§4) Ki=IC50/(1+[Substrate]/Km)
(§5) Where [Substrate] denotes the concentration of substrate used in the assay and Km is the determined value of each enzyme with its own substrate.
The fold selectivity for FXIIa over thrombin for the compounds of the invention has been categorised based on the fold selectivity values, the categories being “+”, “++” and “+++”. The category “+” refers to fold selectivity values less than 10. The category “++” refers to a fold selectivity value of 10 to 100. The category “+++” refers to fold selectivity values greater than 100.

FXa (human) = FXa (human) (Homo sapiens, UniProt P00742); assay: Determination of selectivity: FXa chromogenic assay (S2765 substrate); details: fold selectivity for FXIIa over FXa; FXa 5 nM, S2765 350 μM
FXa (human), sequence (P00742 235-488 limits assumed): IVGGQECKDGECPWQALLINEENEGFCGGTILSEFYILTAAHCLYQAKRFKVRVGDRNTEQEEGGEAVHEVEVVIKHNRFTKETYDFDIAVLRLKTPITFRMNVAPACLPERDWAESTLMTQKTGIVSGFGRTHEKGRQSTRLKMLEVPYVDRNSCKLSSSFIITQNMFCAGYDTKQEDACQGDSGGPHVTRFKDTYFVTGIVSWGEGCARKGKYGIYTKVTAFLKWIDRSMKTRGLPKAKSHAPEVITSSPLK
FXa (human), sequence (P00742 41-179 partner limits assumed): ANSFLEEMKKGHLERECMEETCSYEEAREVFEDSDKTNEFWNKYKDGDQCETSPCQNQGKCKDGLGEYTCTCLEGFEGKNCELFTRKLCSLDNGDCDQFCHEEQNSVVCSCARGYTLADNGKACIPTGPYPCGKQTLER
Procedure: as §1, §2, §3, §4, §5
The fold selectivity for FXIIa over FXa for the compounds of the invention has been categorised based on the fold selectivity values, the categories being “o”, “oo” and “ooo”. The category “o” refers to fold selectivity values less than 10. The category “oo” refers to a fold selectivity value of 10 to 100. The category “ooo” refers to fold selectivity values greater than 100.

FXIIa alpha (Human) = target: T2, FXIIa alpha (Human) (Homo sapiens, UniProt P00748); assay: Determination of Factor XIIa inhibition, chromogenic substrate S-2302; details: 10 nM FXIIa, 450 μM S-2302, 37° C., pH 7.4; Ki converted from IC50
T2 construct: FXIIa alpha
T2 sequence (P00748 373-615 limits assumed): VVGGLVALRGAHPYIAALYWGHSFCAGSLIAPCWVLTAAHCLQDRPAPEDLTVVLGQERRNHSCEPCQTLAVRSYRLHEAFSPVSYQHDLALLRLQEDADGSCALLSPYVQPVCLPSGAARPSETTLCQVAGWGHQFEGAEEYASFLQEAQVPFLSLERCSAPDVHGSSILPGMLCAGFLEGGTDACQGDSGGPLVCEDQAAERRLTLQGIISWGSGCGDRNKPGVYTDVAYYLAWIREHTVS
T2 sequence (P00748 20-372 partner limits assumed): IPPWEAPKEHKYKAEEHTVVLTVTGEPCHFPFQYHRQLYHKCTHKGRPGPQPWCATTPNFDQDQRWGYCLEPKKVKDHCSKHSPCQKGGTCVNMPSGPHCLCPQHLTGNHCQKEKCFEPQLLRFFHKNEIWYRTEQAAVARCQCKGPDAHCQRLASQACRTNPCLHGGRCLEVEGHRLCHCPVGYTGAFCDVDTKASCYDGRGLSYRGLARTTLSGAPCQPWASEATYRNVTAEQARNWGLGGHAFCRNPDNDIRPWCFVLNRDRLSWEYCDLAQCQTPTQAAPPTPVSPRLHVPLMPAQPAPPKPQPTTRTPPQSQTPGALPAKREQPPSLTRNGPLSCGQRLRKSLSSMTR
Procedure: as §1, §2
Factor XIa activity was measured using a chromogenic substrate S-2302 (Chromogenix). Various concentrations of compound were incubated with 10 nM of FXIIa and incubated at 37° C. for 10 minutes in 50 mM Tris, 137 mM NaCl, pH 7.4, prior to the addition of a final concentration of 450 μM S-2302 chromogenic substrate. Kinetic readings at 405 nm were monitored every 12 secs for a total duration of 3 hours at 37° C. Gradients of initial rates were determined and employed to calculate IC50 values. Values of IC50 were converted to Ki values based on the formula:
as §4
The activity of the compounds of the invention has been categorised based on the Ki values, the categories being “*”, “**” and “***”. […] The category refers to compounds with a Ki value of 0.2 μM to 2 μM.

Ki (FXIIa alpha (Human)) [nM] | SMILES | Thrombin (human)/FXIIa alpha (human) fold selectivity (Thrombin (human)) | FXa (human)/FXIIa alpha (human) fold selectivity (FXa (human))
> 2000 | Cn1nnc2cc(CNC(=O)[C@@H]3CN(C(=O)OCc4ccccc4)CCN3C(=O)[C@H]3C[C@@H](c4ccccc4)CN3)ccc21 [Compound M05276] | ++ (a fold selectivity value of 10 to 100) | oo (a fold selectivity value of 10 to 100)
> 2000 | CN(C)[C@H](CCC(=O)N1CCCC1)C(=O)N1CCN(C(=O)OCc2ccccc2)C[C@H]1C(=O)NCc1ccc2[nH]cnc2c1 [Compound M05217] | ++ (a fold selectivity value of 10 to 100) | oo (a fold selectivity value of 10 to 100)
> 2000 | Cn1nnc2cc(CNC(=O)[C@@H]3CN(C(=O)OCc4ccccc4)CCN3C(=O)[C@H](N)CCC(=O)N3CCCC3)ccc21 [Compound M05212] | +++ (fold selectivity values greater than 100) | ooo (fold selectivity values greater than 100)
> 2000 | Cn1nnc2cc(CNC(=O)C3CN(C(=O)OCc4ccc(Cl)cc4)CCN3C(=O)C(N)CCc3ccccc3)ccc21 (stereo not shown) [Compound M00942] | – | –
> 2000 | NCc1ccc(CNC(=O)C2CC(O)CCN2C(=O)C(N)CCc2ccccc2)cc1 (stereo not shown) [Compound M05071] | – | –
200 to 2000 | O=C(NCc1cc2ccncc2[nH]1)[C@@H]1CN(C(=O)OCc2ccccc2)CCN1C(=O)[C@H]1C[C@@H](c2ccccc2)CN1 [Compound M00950] | ++ (a fold selectivity value of 10 to 100) | oo (a fold selectivity value of 10 to 100)
> 2000 | Cn1nnc2cc(CNC(=O)[C@@H]3CC(Oc4ncccn4)CCN3C(=O)[C@H](N)CCC(=O)N3CCCC3)ccc21 (stereo partly shown) [Compound M05252] | ++ (a fold selectivity value of 10 to 100) | oo (a fold selectivity value of 10 to 100)
< 200 | N[C@H](CCC(=O)N1CCCC1)C(=O)N1CCN(C(=O)OCc2ccccc2)C[C@H]1C(=O)NCc1cc2cnccc2[nH]1 [Compound M00971] | +++ (fold selectivity values greater than 100) | ooo (fold selectivity values greater than 100)
> 2000 | NC(CCC(=O)N1CCCC1)C(=O)N1CCN(C(=O)OCc2ccccc2)CC1C(=O)NCc1ccnc(O)c1 (stereo not shown) [Compound M05263] | – | –
> 2000 | Cn1nnc2cc(CNC(=O)C3CN(C(=O)OCc4ccccc4)CCN3C(=O)C(N)C3Cc4ccccc4C3)ccc21 (stereo not shown) [Compound M05273] | – | –
> 2000 | Cn1nnc2cc(CNC(=O)C3CN(C(=O)OCc4ccccc4)CCN3C(=O)C(N)c3cc4ccccc4o3)ccc21 (stereo not shown) [Compound M05286] | – | –
> 2000 | NC(CCC(=O)N1CCCC1)C(=O)N1CCN(C(=O)OCc2ccccc2)CC1C(=O)NCc1ccc2cnc(O)cc2c1 (stereo not shown) [Compound M05277] | ++ (a fold selectivity value of 10 to 100) | –
> 2000 | NC(CCC(=O)N1CCCC1)C(=O)N1CCN(C(=O)OCc2ccccc2)CC1C(=O)NCc1ccc2cnccc2c1 (stereo not shown) [Compound M05275] | – | –
> 2000 | Cc1cc2cc(CNC(=O)C3CN(C(=O)OCc4ccccc4)CCN3C(=O)C(N)CCC(=O)N3CCCC3)ccc2cn1 (stereo not shown) [Compound M05292] | – | –

The remaining lines, values behind:

SMILES | Ki (FXIIa alpha (Human)) [nM] | Thrombin (human)/FXIIa alpha (human) fold selectivity (Thrombin (human)) | FXa (human)/FXIIa alpha (human) fold selectivity (FXa (human))
CN(C)[C@H](CCc1ccccc1)C(=O)N1CCN(C(=O)OCc2ccccc2)C[C@H]1C(=O)NCc1ccnc(N)c1 [Compound M00833] | > 2000 | ++ (a fold selectivity value of 10 to 100) | oo (a fold selectivity value of 10 to 100)
Cc1cc(CNC(=O)[C@@H]2CN(C(=O)OCc3ccccc3)CCN2C(=O)[C@H](N)CCc2ccccc2)cc(N)n1 [Compound M00858] | > 2000 | ++ (a fold selectivity value of 10 to 100) | oo (a fold selectivity value of 10 to 100)
CC(C(=O)N1CCN(C(=O)C(N)CCc2ccccc2)C(C(=O)NCc2ccc(CN)cc2)C1)c1ccccc1 (stereo not shown) [Compound M00859] | > 2000 | – | –
Cn1nnc2cc(CNC(=O)[C@@H]3CN(C(=O)Oc4ccc(Cl)cc4)CCN3C(=O)[C@H](N)CCc3ccccc3)ccc21 [Compound M00933] | > 2000 | ++ (a fold selectivity value of 10 to 100) | oo (a fold selectivity value of 10 to 100)
Cn1nnc2cc(CNC(=O)[C@@H]3CN(C(=O)Oc4ccccc4)CCN3C(=O)[C@H](N)CCc3ccccc3)ccc21 [Compound M00871] | > 2000 | ++ (a fold selectivity value of 10 to 100) | oo (a fold selectivity value of 10 to 100)
NCc1ccc(CNC(=O)C2CN(c3ccccc3)CCN2C(=O)C(N)CCc2ccccc2)cc1 (stereo not shown) [Compound M00836] | > 2000 | – | –
Cn1nnc2cc(CNC(=O)[C@@H]3CN(c4ccc5ncccc5c4)CCN3C(=O)[C@H](N)CCc3ccccc3)ccc21 [Compound M00940, (2S)-1-[(2R)-2-amino-4-phenylbutanoyl]-N-[(1-methyl-1H-1,2,3-benzotriazol-5-yl)methyl]-4-(quinolin-6-yl)piperazine-2-carboxamide] | > 2000 | – | –
NCc1ccc(CNC(=O)C2CN(C(=O)c3ccccc3)CCN2C(=O)C(N)CCc2ccccc2)cc1 (stereo not shown) [Compound M00844] | > 2000 | – | –
C#CCOC(=O)N1CCN(C(=O)C(N)CCc2ccccc2)C(C(=O)NCc2ccc3c(c2)nnn3C)C1 (stereo not shown) [Compound M00880] | > 2000 | – | –
CN(C)C(=O)N1CCN(C(=O)C(N)CCc2ccccc2)C(C(=O)NCc2ccc(CN)cc2)C1 (stereo not shown) [Compound M00848] | > 2000 | – | –
Cn1ccnc1COC(=O)N1CCN(C(=O)C(N)CCc2ccccc2)C(C(=O)NCc2ccc3c(c2)nnn3C)C1 (stereo not shown) [Compound M00883] | > 2000 | – | –
NCc1ccc(CNC(=O)C2CNCCN2C(=O)C(N)CCc2ccccc2)cc1 (stereo not shown) [Compound M00862] | > 2000 | – | –
NCc1ccc(CNC(=O)C2CN(C(=O)NCc3ccccc3)CCN2C(=O)C(N)CCc2ccccc2)cc1 (stereo not shown) [Compound M00847] | > 2000 | – | –
NCc1ccc(CNC(=O)C2CN(C(=O)CCc3ccccc3)CCN2C(=O)C(N)CCc2ccccc2)cc1 (stereo not shown) [Compound M00840] | > 2000 | – | –
NCc1ccc(CNC(=O)C2CN(S(=O)(=O)CCc3ccccc3)CCN2C(=O)C(N)CCc2ccccc2)cc1 (stereo not shown) [Compound M00842] | > 2000 | – | –
Cn1nnc2cc(CNC(=O)C3CN(c4ncccn4)CCN3C(=O)C(N)CCc3ccccc3)ccc21 (stereo not shown) [Compound M00891] | > 2000 | – | –
CC(=O)N1CCN(C(=O)C(N)CCc2ccccc2)C(C(=O)NCc2ccc(CN)cc2)C1 (stereo not shown) [Compound M00850] | > 2000 | – | –
